Data from patent US6476025B1, “Phenylphennanthridines with PDE-IV inhibiting activity” (Altana Pharma AG, priority 1999, dated 2002).

Columns and labels:
PDE4 = assay: Inhibition of PDE4 activity (method of Bauer and Schwabe, adapted to microtiter plates); type: biochemical; settings: inhibitory concentration as −log IC50 (mol/l)
Procedure: The activity test was carried out according to the method of Bauer and Schwabe, which was adapted to microtiter plates (Naunyn-Schmiedeberg's Arch. Pharmacol. 1980, 311, 193-198). The PDE reaction takes place in the first step here. In a second step, the resulting 5′-nucleotide is cleaved by a 5′-nucleotidase of the snake venom of Crotalus atrox to the uncharged nucleoside. In the third step, the nucleoside is separated from the remaining charged substrate on ion-exchange columns. The columns are eluted directly into minivials, into which 2 ml of scintillator fluid are additionally added, for counting using 2 ml of 30 mM ammonium formate (pH 6.0).
The inhibitory values determined for the compounds according to the invention [inhibitory concentration as −log Ic50 (mol/l)] follow from the following Table A, in which the numbers of the compounds correspond to the numbers of the examples.

Compound | −log IC50, inhibition of the PDE4 activity (PDE4) | melting point [°C]
COc1cc2c(cc1OC)C1CCCCC1N=C2c1ccc(OC)c(N2C(=O)CCC2=O)c1 (single isomer, unassigned; (-)) [Compound 48, (−)-cis-8,9-Dimethoxy-6-{[3-(2,5-dioxopyrrolidin-1-yl)-4-methoxy]phenyl}-1,2,3,4,4a,10b-hexahydrophenanthridine] | 7.67 | 168 to 177
COc1cc2c(cc1OC)[C@@H]1CCCC[C@@H]1N=C2c1ccc(Oc2ccccc2)cc1 [Compound 4, (−)-cis-8,9-Dimethoxy-6-(4-phenoxyphenyl)-1,2,3,4,4a,10b-hexahydrophenanthridine] | 7.52 | 110 to 115
COc1cc2c(cc1OC)[C@@H]1CCCC[C@@H]1N=C2c1ccc(C(=O)CC(C)C)cc1 [Compound 23, (−)-cis-8,9-Dimethoxy-6-[4-(3-methylbutyryl)phenyl]-1,2,3,4,4a,10b-hexahydrophenanthridine] | 7.5 | 114 to 117
COc1cc2c(cc1OC)[C@@H]1CCCC[C@@H]1N=C2c1cccc(OCc2ccccc2)c1 [Compound 7, (−)-cis-8,9-Dimethoxy-6-(3-benzyloxyphenyl)-1,2,3,4,4a,10b-hexahydrophenanthridine] | 8.40 | 118 to 120
COc1cc2c(cc1OC)[C@@H]1CCCC[C@@H]1N=C2c1ccc(C(=O)CC2CC2)cc1 [Compound 24, (−)-cis-8,9-Dimethoxy-6-[4-cyclopropylmethylcarbonylphenyl]-1,2,3,4,4a,10b-hexahydrophenanthridine] | 7.48 | 93 to 98
CCOc1cc2c(cc1OC)C(c1ccc(CCl)cc1)=N[C@H]1CCCC[C@@H]21 (relative stereo) [Compound 19, cis-6-(4-Chloromethylphenyl)-9-ethoxy-8-methoxy-1,2,3,4,4a,10b-hexahydrophenanthridine] | 8.59 | 151 to 153
COc1cc2c(cc1OC)[C@@H]1CCCC[C@@H]1N=C2c1cccc(C(C)=O)c1 [Compound 49, (−)cis-8,9-Dimethoxy-6-(3-acetylphenyl)-1,2,3,4,4a,10b-hexahydrophenanthridine] | 7.17 | 112.5 to 114
COc1cc2c(cc1OC)[C@@H]1CCCC[C@@H]1N=C2c1cccc(OCC2CC2)c1 [Compound 35, (−)-cis-8,9-Dimethoxy-6-(3-cyclopropylmethoxyphenyl)-1,2,3,4,4a,10b-hexahydrophenanthridine] | 7.43 | 54 to 61
COC(=O)Cc1ccc(C2=N[C@H]3CCCC[C@H]3c3cc(OC)c(OC)cc32)cc1 [Compound 18, (−)-cis-8,9-Dimethoxy-6-(4-methoxycarbonylmethylphenyl)-1,2,3,4,4a,10b-hexahydrophenanthridine] | 7.49 | 124 to 125
COc1cc2c(cc1OC)[C@@H]1CCCC[C@@H]1N=C2c1ccc(OC)c(N2CCCC2=O)c1 [Compound 47, (−)-cis-8,9-Dimethoxy-6-[4-methoxy-3-(2-oxopyrrolidin-1-yl)phenyl]-1,2,3,4,4a,10b-hexahydrophenanthridine] | 7.33 | 147 to 152
COc1cc2c(cc1OC)[C@@H]1CCCC[C@@H]1N=C2c1cccc(S(=O)(=O)c2ccccc2)c1 [Compound 33, (−)-cis-8,9-Dimethoxy-6-[3-(phenylsulfonyl)phenyl]-1,2,3,4,4a,10b-hexahydrophenanthridine] | 8.23 | 
COc1cccc(C(=O)c2ccc(C3=N[C@H]4CCCC[C@H]4c4cc(OC)c(OC)cc43)cc2)c1 [Compound 30, (−)-cis-8,9-Dimethoxy-6-[4-(3-methoxybenzoyl)phenyl]-1,2,3,4,4a,10b-hexahydrophenanthridine] | 7.94 | 146 to 148
CCOc1cc2c(cc1OC)C(c1ccc(OCC)c(OCC3CC3)c1)=NC1CCCCC21 (single isomer, unassigned; (-)) [Compound 39, (−)-cis-9-Ethoxy-8-methoxy-6-[(3-cyclopropylmethoxy-4-ethoxy)phenyl]-1,2,3,4,4a,10b-hexahydrophenanthridine] | 8.87 | 102 to 105
COc1cc2c(cc1OC)[C@@H]1CCCC[C@@H]1N=C2c1cccc(Oc2ccncc2)c1 [Compound 37, (−)-cis-8,9-Dimethoxy-6-[3-(pyrid-4-yloxy)phenyl]-1,2,3,4,4a,10b-hexahydrophenanthridine] | 7.92 | 
COc1cc2c(cc1OC)C1CCCCC1N=C2c1cccc(C(=O)N2CCCCC2)c1 (single isomer, unassigned; (-)) [Compound 17, (−)-cis-8,9-Dimethoxy-[3-(piperidin-1-ylcarbonyl)phenyl]-1,2,3,4,4a,10b-hexahydrophenanthridine] | 8.13 | 182 to 185
COc1cc2c(cc1OC)[C@@H]1CCCC[C@@H]1N=C2c1ccc(C(=O)c2ccc([N+](=O)[O-])cc2)cc1 [Compound 29, (−)cis-8,9-Dimethoxy-6-[4-(4-nitrobenzoyl)phenyl]-1,2,3,4,4a,10b-hexahydrophenanthridine] | 7.28 | 
